Assay results as given in article PMC8065691, “Polymerizable Matrix Metalloproteinases’ Inhibitors with Potential Application for Dental Restorations” (Biomedicines, 2021).

Test system: not listed separately
Test: Cytotoxicity study using MTT assay, NIH/3T3
Assay type: cell-based, mouse
Settings: mouse, NIH/3T3 fibroblast cells; NIH/3T3, inhibitor concentration 20 μM, extract, 24 h, MTT, mean; read-out: Cell Viability (%) NIH/3T3 M
Experimental: (§1) Two cell lines, fibroblastic cells NIH/3T3 from mouse embryo (93061524) obtained from Health Protection Agency Culture Collections and supplied by Sigma and MG-63 osteoblast-like cells from human osteosarcoma (ATCC® CRL-1427^TM) were used for cytotoxicity studies. Defrosting and handling of cell lines was carried out according to supplier information.
(§2) The NIH/3T3 cells were grown in Dulbecco’s Modified Eagle Medium (DMEM, Sigma) supplemented with 10% calf bovine serum (Sigma) and 1% Penicillin-Streptomycin solution: 10,000 U/mL penicillin, 10 mg/mL streptomycin, Sigma) and 2.5 mg/L amphotericin B (fungizone, Sigma). MG-63 cells were grown in Eagle’s Minimum Essential Medium (EMEM, Sigma) supplemented with 10% fetal bovine serum and 1% of antibiotics and 2.5 mg/L antimycotics solutions.
(§3) Extracts from each compound A, B or C were prepared by spreading 20 μL of a solution with 20 μM, 50 μM or 100 μM of each compound in a glass petri dish, allowed to dry, and incubated at 37 °C under humidified 5% CO2 for 24 h with 10 mL of the corresponding growth medium according to ISO 10993–12: 2012.
(§4) The cytotoxicity assay was performed as follows: 1 × 10^4 cells per well, from passages 8 to 12, were seeded in 96-well plates (eight replicates) and incubated at 37 °C under humidified 5% CO2 for 24 h. After proliferation, the cell medium was replaced by 200 μL of each extract and incubated under the same conditions for 24 h. As positive control cells were grown in their medium containing 7.5% DMSO (Sigma) and as negative control cells proliferated in medium without any toxic corresponding to 100% cell viability. MTT assays were performed as previously described. Briefly, extracts or medium were removed, an MTT solution (0.5 mg/mL prepared in serum-free medium, Sigma) was added to each well and cells were incubated for additional 3 h. After that, a solution containing 0.1% IGEPAL (Merck), 4 mM HCl (Sigma) in isopropanol (Sigma) was used to dissolve formazan. Plates were incubated with agitation for one hour and absorbance was read at 595 nm with a microplate reader (Bio-Rad®, Hercules, California, USA).

Going from `C=C(C)C(=O)Oc1ccc(-c2ccc(C#N)cc2)cc1` [Compound A, 4′-cyano-[1,1′-bihenyl]-4-yl methacrylate] to `C=C(C)C(=O)OCCCCCOc1ccc(-c2ccc(C#N)cc2)cc1` [Compound B, 5-((4′-cyano-[1,1′-biphenyl]-4-yl)oxy)pentyl methacrylate], the viability at 24 h, 20 µM (stock) falls from 85.1% to 78.6%.

`C=C(C)C(=O)Nc1ccc(Oc2ccc(NC(=O)C(=C)C)cc2)cc1` [Compound C, N,N′-(oxybis(4,1-phenylene))bis(2-methylacrylamide)] gave a viability at 24 h, 20 µM (stock) of 83.7%.

Same assay, conditions: mouse, NIH/3T3 fibroblast cells; NIH/3T3, inhibitor concentration 50 µM, extract, 24 h, MTT, mean; read-out: Cell Viability (%) NIH/3T3 M

Compared with `C=C(C)C(=O)Oc1ccc(-c2ccc(C#N)cc2)cc1` [Compound A, 4′-cyano-[1,1′-bihenyl]-4-yl methacrylate], `C=C(C)C(=O)OCCCCCOc1ccc(-c2ccc(C#N)cc2)cc1` [Compound B, 5-((4′-cyano-[1,1′-biphenyl]-4-yl)oxy)pentyl methacrylate] is lower in viability at 24 h, 50 µM (stock): 54.2% for the first, 50.5% for the second.

With `C=C(C)C(=O)Nc1ccc(Oc2ccc(NC(=O)C(=C)C)cc2)cc1` [Compound C, N,N′-(oxybis(4,1-phenylene))bis(2-methylacrylamide)] the viability at 24 h, 50 µM (stock) was 46.4%.

Same assay, conditions: mouse, NIH/3T3 fibroblast cells; NIH/3T3, inhibitor concentration 100 µM, extract, 24 h, MTT, mean; read-out: Cell Viability (%) NIH/3T3 M

Going from `C=C(C)C(=O)Oc1ccc(-c2ccc(C#N)cc2)cc1` [Compound A, 4′-cyano-[1,1′-bihenyl]-4-yl methacrylate] to `C=C(C)C(=O)OCCCCCOc1ccc(-c2ccc(C#N)cc2)cc1` [Compound B, 5-((4′-cyano-[1,1′-biphenyl]-4-yl)oxy)pentyl methacrylate], the viability at 24 h, 100 µM (stock) falls from 45.5% to 40.5%.

`C=C(C)C(=O)Nc1ccc(Oc2ccc(NC(=O)C(=C)C)cc2)cc1` [Compound C, N,N′-(oxybis(4,1-phenylene))bis(2-methylacrylamide)] gave a viability at 24 h, 100 µM (stock) of 42.4%.

Test system: NIH/3T3 fibroblast cells
Test: Cytotoxicity study using MTT assay, NIH/3T3
Assay type: cell-based, mouse
Settings: NIH/3T3 cells, 50 and 100 µM
Experimental: as §1, §2, §3, §4

For `C=C(C)C(=O)Oc1ccc(-c2ccc(C#N)cc2)cc1` [Compound A, 4′-cyano-[1,1′-bihenyl]-4-yl methacrylate], the “toxicity according to ISO 10993–5: 2009 (viable cells decreased more than 30%)” value was “toxic”.
For `C=C(C)C(=O)OCCCCCOc1ccc(-c2ccc(C#N)cc2)cc1` [Compound B, 5-((4′-cyano-[1,1′-biphenyl]-4-yl)oxy)pentyl methacrylate], the “toxicity according to ISO 10993–5: 2009 (viable cells decreased more than 30%)” value was “toxic”.
With `C=C(C)C(=O)Nc1ccc(Oc2ccc(NC(=O)C(=C)C)cc2)cc1` [Compound C, N,N′-(oxybis(4,1-phenylene))bis(2-methylacrylamide)] the “toxicity according to ISO 10993–5: 2009 (viable cells decreased more than 30%)” value was “toxic”.

Test system: not listed separately
Test: Cytotoxicity study using MTT assay, MG-63
Assay type: cell-based
Settings: human, MG-63 osteoblast-like cells, MG-63, inhibitor concentration 20 μM, extract, mean, read-out: Cell Viability (%) MG-63 M
Experimental: as §1, §2, §3, §4

Going from `C=C(C)C(=O)Oc1ccc(-c2ccc(C#N)cc2)cc1` [Compound A, 4′-cyano-[1,1′-bihenyl]-4-yl methacrylate] to `C=C(C)C(=O)OCCCCCOc1ccc(-c2ccc(C#N)cc2)cc1` [Compound B, 5-((4′-cyano-[1,1′-biphenyl]-4-yl)oxy)pentyl methacrylate], the viability at 24 h, 20 µM (stock) falls from 82.6% to 78.1%.

Molecule `C=C(C)C(=O)Nc1ccc(Oc2ccc(NC(=O)C(=C)C)cc2)cc1` [Compound C, N,N′-(oxybis(4,1-phenylene))bis(2-methylacrylamide)] has a viability at 24 h, 20 µM (stock) of 85%.

Same assay, conditions: human, MG-63 osteoblast-like cells, MG-63, inhibitor concentration 50 µM, extract, mean, read-out: Cell Viability (%) MG-63 M

Going from `C=C(C)C(=O)Oc1ccc(-c2ccc(C#N)cc2)cc1` [Compound A, 4′-cyano-[1,1′-bihenyl]-4-yl methacrylate] to `C=C(C)C(=O)OCCCCCOc1ccc(-c2ccc(C#N)cc2)cc1` [Compound B, 5-((4′-cyano-[1,1′-biphenyl]-4-yl)oxy)pentyl methacrylate], the viability at 24 h, 50 µM (stock) falls from 73.6% to 70.3%.

Molecule `C=C(C)C(=O)Nc1ccc(Oc2ccc(NC(=O)C(=C)C)cc2)cc1` [Compound C, N,N′-(oxybis(4,1-phenylene))bis(2-methylacrylamide)] has a viability at 24 h, 50 µM (stock) of 65.8%.

Same assay, conditions: human, MG-63 osteoblast-like cells, MG-63, inhibitor concentration 100 µM, extract, mean, read-out: Cell Viability (%) MG-63 M

Compared with `C=C(C)C(=O)Oc1ccc(-c2ccc(C#N)cc2)cc1` [Compound A, 4′-cyano-[1,1′-bihenyl]-4-yl methacrylate], `C=C(C)C(=O)OCCCCCOc1ccc(-c2ccc(C#N)cc2)cc1` [Compound B, 5-((4′-cyano-[1,1′-biphenyl]-4-yl)oxy)pentyl methacrylate] is lower in viability at 24 h, 100 µM (stock): 73% for the first, 65.9% for the second.

For `C=C(C)C(=O)Nc1ccc(Oc2ccc(NC(=O)C(=C)C)cc2)cc1` [Compound C, N,N′-(oxybis(4,1-phenylene))bis(2-methylacrylamide)], the viability at 24 h, 100 µM (stock) was 69.2%.

Test system: MMPs
Test: Preliminary biochemical tests (not shown)
Settings: data not shown, most MMPs
Description: However, there were additional interactions between the compounds and the enzyme depending on the enzyme class (collagenases and gelatinases) (See Appendix B, Appendix C, Appendix D and Appendix E).

For `C=C(C)C(=O)Oc1ccc(-c2ccc(C#N)cc2)cc1` [Compound A, 4′-cyano-[1,1′-bihenyl]-4-yl methacrylate], the MMP activity reduction was “encouraging indications on activity reduction”.
For `C=C(C)C(=O)OCCCCCOc1ccc(-c2ccc(C#N)cc2)cc1` [Compound B, 5-((4′-cyano-[1,1′-biphenyl]-4-yl)oxy)pentyl methacrylate], the MMP activity reduction was “encouraging indications on activity reduction”.
For `C=C(C)C(=O)Nc1ccc(Oc2ccc(NC(=O)C(=C)C)cc2)cc1` [Compound C, N,N′-(oxybis(4,1-phenylene))bis(2-methylacrylamide)], the MMP activity reduction was “encouraging indications on activity reduction”.
